Source: patent publication US8410117B2, “Imidazopyrimidine derivatives” (Hoffmann-La Roche Inc., priority 2010, dated 2013)

System: not given
Test: not given
Conditions: not given

| Compound | melting point [°C] |
| --- | --- |
| COc1ncccc1C(=O)Nc1ccn2cc(-c3ccccc3)nc2n1 [Example 78, 2-Methoxy-N-(2-phenylimidazo[1,2-a]pyrimidin-7-yl)nicotinamide] | 225 to 226 |
| Cc1ncc(Cl)c(C(=O)Nc2ccn3cc(-c4ccccc4)nc3n2)n1 [Example 79, 5-Chloro-2-methyl-N-(2-phenylimidazo[1,2-a]pyrimidin-7-yl)pyrimidine-4-carboxamide] | > 250 |
| Cc1cc(C(=O)Nc2ccn3cc(-c4ccccc4)nc3n2)ccn1 [Example 80, 2-Methyl-N-(2-phenylimidazo[1,2-a]pyrimidin-7-yl)isonicotinamide] | 255 to 257 |
| Cc1cc(C(=O)Nc2ccn3cc(-c4ccccc4)nc3n2)cc(Cl)n1 [Example 81, 2-Chloro-6-methyl-N-(2-phenylimidazo[1,2-a]pyrimidin-7-yl)isonicotinamide] | 148 to 151 |

Biological target: T1, human PDE10A (Homo sapiens, UniProt Q9Y233)
T1 construct: The human PDE10A full length assay; purchased Enzo Life Science, Lausen, Switzerland SE-534
T1 sequence (Q9Y233 1-779 isoform Q9Y233-1): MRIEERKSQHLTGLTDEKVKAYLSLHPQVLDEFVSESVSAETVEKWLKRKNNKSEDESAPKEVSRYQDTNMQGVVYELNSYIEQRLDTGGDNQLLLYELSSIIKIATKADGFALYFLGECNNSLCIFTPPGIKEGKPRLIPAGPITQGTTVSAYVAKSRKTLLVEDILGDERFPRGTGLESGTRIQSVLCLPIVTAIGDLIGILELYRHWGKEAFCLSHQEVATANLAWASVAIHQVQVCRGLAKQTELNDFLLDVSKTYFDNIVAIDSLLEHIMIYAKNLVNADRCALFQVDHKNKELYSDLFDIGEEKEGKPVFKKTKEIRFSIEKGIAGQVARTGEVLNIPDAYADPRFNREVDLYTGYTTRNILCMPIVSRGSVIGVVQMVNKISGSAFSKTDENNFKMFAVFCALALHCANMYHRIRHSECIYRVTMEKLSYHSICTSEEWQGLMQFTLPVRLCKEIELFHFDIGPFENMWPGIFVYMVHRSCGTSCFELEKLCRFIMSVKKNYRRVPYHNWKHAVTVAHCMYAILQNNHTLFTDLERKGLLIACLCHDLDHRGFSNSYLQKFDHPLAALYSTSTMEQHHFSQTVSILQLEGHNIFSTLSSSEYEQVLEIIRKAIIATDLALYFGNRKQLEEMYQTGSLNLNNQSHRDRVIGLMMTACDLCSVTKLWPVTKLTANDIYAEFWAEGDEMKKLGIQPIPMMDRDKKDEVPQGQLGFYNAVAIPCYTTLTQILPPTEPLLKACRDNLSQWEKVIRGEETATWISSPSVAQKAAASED
Test: human PDE10A full length Scintillation Proximity Assay (SPA)
Format: biochemical
Conditions: 50 nM cGMP and 50 nM [3H]-cGMP, 20 minutes at room temperature; read-out: PDE10A inhibition IC50
Method in brief: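 Full-length enzyme at 3.75 ng/well in 20 mM HEPES pH 7.5, 10 mM MgCl2, 0.05 mg/ml BSA, with 50 nM cGMP plus 50 nM [3H]-cGMP substrate, 20 min at room temperature. Stopped with YSi-SPA beads in zinc sulphate and counted by scintillation. IC50 from inhibitor concentration series; no-enzyme wells define background.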

| Compound | IC50 [nM] |
| --- | --- |
| COc1ncccc1C(=O)Nc1ccn2cc(-c3ccccc3)nc2n1 [Example 78, 2-Methoxy-N-(2-phenylimidazo[1,2-a]pyrimidin-7-yl)nicotinamide] | 125 |
| Cc1ncc(Cl)c(C(=O)Nc2ccn3cc(-c4ccccc4)nc3n2)n1 [Example 79, 5-Chloro-2-methyl-N-(2-phenylimidazo[1,2-a]pyrimidin-7-yl)pyrimidine-4-carboxamide] | 247 |
| Cc1cc(C(=O)Nc2ccn3cc(-c4ccccc4)nc3n2)ccn1 [Example 80, 2-Methyl-N-(2-phenylimidazo[1,2-a]pyrimidin-7-yl)isonicotinamide] | 496 |
| Cc1cc(C(=O)Nc2ccn3cc(-c4ccccc4)nc3n2)cc(Cl)n1 [Example 81, 2-Chloro-6-methyl-N-(2-phenylimidazo[1,2-a]pyrimidin-7-yl)isonicotinamide] | 703 |
| Cn1ccc(CNC(=O)c2cnn(C)c2C(=O)Nc2ccn3cc(-c4ccccc4)nc3n2)n1 [Example 157, 1-methyl-N-4-((1-methyl-1H-pyrazol-3-yl)methyl)-N5-(2-phenylimidazo[1,2-a]pyrimidin-7-yl)-1H-pyrazole-4,5-dicarboxamide] | 389 |
| Cn1cc(Cl)c(CNC(=O)c2cnn(C)c2C(=O)Nc2ccn3cc(-c4ccccc4)nc3n2)n1 [Example 158, N4-((4-chloro-1-methyl-1H-pyrazol-3-yl)methyl)-1-methyl-N5-(2-phenylimidazo[1,2-a]pyrimidin-7-yl)-1H-pyrazole-4,5-dicarboxamide] | 427 |
| O=C(Nc1ccn2cc(-c3ccccc3)nc2n1)c1nn[nH]c1C(=O)NC1CC1 [Example 159, N5-cyclopropyl-N4-(2-phenylimidazo[1,2-a]pyrimidin-7-yl)-1H-1,2,3-triazole-4,5-dicarboxamide] | 451 |
| CCc1cc(CNC(=O)c2cnn(C)c2C(=O)Nc2ccn3cc(-c4ccccc4)nc3n2)on1 [Example 160, N4-((3-ethylisoxazol-5-yl)methyl)-1-methyl-N5-(2-phenylimidazo[1,2-a]pyrimidin-7-yl)-1H-pyrazole-4,5-dicarboxamide] | 459 |
| COc1ncccc1CNC(=O)c1cnn(C)c1C(=O)Nc1ccn2cc(-c3ccccc3)nc2n1 [Example 161, N4-((2-methoxypyridin-3-yl)methyl)-1-methyl-N5-(2-phenylimidazo[1,2-a]pyrimidin-7-yl)-1H-pyrazole-4,5-dicarboxamide] | 547 |
| Cn1ncc(C(=O)NCc2ccccc2)c1C(=O)Nc1ccn2cc(-c3ccccc3)nc2n1 [Example 162, N4-benzyl-1-methyl-N5-(2-phenylimidazo[1,2-a]pyrimidin-7-yl)-1H-pyrazole-4,5-dicarboxamide] | 624 |
| Cc1nc(CNC(=O)c2cnn(C)c2C(=O)Nc2ccn3cc(-c4ccccc4)nc3n2)cs1 [Example 163, 1-methyl-N4-((2-methylthiazol-4-yl)methyl)-N5-(2-phenylimidazo[1,2-a]pyrimidin-7-yl)-1H-pyrazole-4,5-dicarboxamide] | 636 |
| CCCn1ccc(CNC(=O)c2cnn(C)c2C(=O)Nc2ccn3cc(-c4ccccc4)nc3n2)n1 [Example 164, 1-methyl-N5-(2-phenylimidazo[1,2-a]pyrimidin-7-yl)-N4-((1-propyl-1H-pyrazol-3-yl)methyl)-1H-pyrazole-4,5-dicarboxamide] | 725 |
| Cc1oc(C2CC2)nc1CNC(=O)c1cnn(C)c1C(=O)Nc1ccn2cc(-c3ccccc3)nc2n1 [Example 165, N4-((2-cyclopropyl-5-methyloxazol-4-yl)methyl)-1-methyl-N5-(2-phenylimidazo[1,2-a]pyrimidin-7-yl)-1H-pyrazole-4,5-dicarboxamide] | 776 |
| Cn1ncc(C(=O)NCc2noc(C3CC3)n2)c1C(=O)Nc1ccn2cc(-c3ccccc3)nc2n1 [Example 166, N4-((5-cyclopropyl-1,2,4-oxadiazol-3-yl)methyl)-1-methyl-N5-(2-phenylimidazo[1,2-a]pyrimidin-7-yl)-1H-pyrazole-4,5-dicarboxamide] | 812 |
| Cn1ncc(C(=O)NCc2nc(C3CC3)no2)c1C(=O)Nc1ccn2cc(-c3ccccc3)nc2n1 [Example 167, N4-((3-cyclopropyl-1,2,4-oxadiazol-5-yl)methyl)-1-methyl-N5-(2-phenylimidazo[1,2-a]pyrimidin-7-yl)-1H-pyrazole-4,5-dicarboxamide] | 825 |
| Cc1nc(CNC(=O)c2cnn(C)c2C(=O)Nc2ccn3cc(-c4ccccc4)nc3n2)no1 [Example 168, 1-methyl-N-4-((5-methyl-1,2,4-oxadiazol-3-yl)methyl)-N5-(2-phenylimidazo[1,2-a]pyrimidin-7-yl)-1H-pyrazole-4,5-dicarboxamide] | 865 |
| Cn1cc2c(n1)CN(C(=O)c1cnn(C)c1C(=O)Nc1ccn3cc(-c4ccccc4)nc3n1)C2 [Example 169, 1-methyl-4-(2-methyl-2,4,5,6-tetrahydropyrrolo[3,4-c]pyrazole-5-carbonyl)-N-(2-phenylimidazo[1,2-a]pyrimidin-7-yl)-1H-pyrazole-5-carboxamide] | 963 |
| Cn1ncc(C(=O)NCc2nc3ccccc3o2)c1C(=O)Nc1ccn2cc(-c3ccccc3)nc2n1 [Example 170, N4-(benzo[d]oxazol-2-ylmethyl)-1-methyl-N5-(2-phenylimidazo[1,2-a]pyrimidin-7-yl)-1H-pyrazole-4,5-dicarboxamide] | 969 |
| CC(C)c1noc(CNC(=O)c2cnn(C)c2C(=O)Nc2ccn3cc(-c4ccccc4)nc3n2)n1 [Example 171, N4-((3-isopropyl-1,2,4-oxadiazol-5-yl)methyl)-1-methyl-N5-(2-phenylimidazo[1,2-a]pyrimidin-7-yl)-1H-pyrazole-4,5-dicarboxamide] | 989 |

System: rats
Test: not given
Conditions: sub-chronic treatment with PCP; cited from earlier work

| Compound | deficits in the extra-dimensional shift learning |
| --- | --- |
| COc1ccc(Cc2nccc3cc(OC)c(OC)cc23)cc1OC [papaverine, Papaverine] | attenuate the deficits in the extra-dimensional shift learning |
